Measured values: EP0215300A2, “Use of diazaphosphorines for combating endoparasites” (BAYER AG, priority 1985, dated 1987)

Key:
[1] = system: Caenorhabditis elegans; experiment: In vitro nematode test (inhibition of reproduction); assay type: cell-based; conditions: 168 h; concentration at which reproduction is prevented; 7 days at 22°C; E.coli suspension in M9 buffer; read-out: Minimale effektive Dosis
Procedure: 10-^4 g Wirkstoff werden in 1 ml Wasser oder 0,1 ml Dimethylsulfoxid (DMSO) gelöst. Diese Lösung wurde auf eine Replica-Platte gegeben. Dazu wurden 2 ml einer E.coli-Suspension gegeben, zu der man 10-20 weibliche Tiere oder Larven von Caenorhabditis elegans in 0,5 ml sterile M9 Pufferlösung gegeben hat. Die E.coli-Suspension wurde hergestellt indem man 300 ml einer Ubernachtkultur eines Uracil-bedürftigen E.coli-Stammes mit 1,8 1 steriler M9 Pufferlösung versetzte.
Der Versuchsansatz wurde 7 Tage bei 22°C inkubiert und danach ausgewertet. Es wurde bewertet inwieweit der Wirkstoff die Vermehrung beeinträchtigt und die Konzentration angegeben bei der die Vermehrung verhindert wird. Dabei wurden folgende Ergebnisse erhalten: • In vitro Nematodentest

[2] = system: Heterakis spumora; experiment: In vivo nematode test in experimentally infected mice; conditions: Mus musculus; mice (Mäuse); oral by gavage on four consecutive days from day 32 after infection; killed day 39; at least 95 % of parasites killed; read-out: minimale effektive Dosis
Text: (§1) Experimentell mit Heterakis spumora infizierte Mäuse werden 32 Tage nach der Infektion an vier aufeinanderfolgenden Tagen oral mittels Schlundsonde behandelt. Die Tiere werden 39 Tage nach der Infektion getötet und die Zahl der Parasiten bestimmt. Es wird die Wirkstoffkonzentration angegeben bei der mindestens 95 % der Parasiten abgetötet wurden (minimale effektive Dosis): […]

[3] = system: Hymenolepis nana; experiment: as above; conditions: Rodentolepis nana; mice (Mäuse); oral by gavage on four consecutive days from day 10 after infection; killed day 17; at least 95 % of parasites killed; read-out: minimale effektive Dosis
Text: Experimeltell mit Hymenolepis nana infizierte Mäuse werden 10 Tage nach der Infektion an vier aufeinanderfolgenden Tagen oral mittels Schlundsonde behandelt. Die Tiere werden 17 Tage nach Infektion getötet und die Zahl der Parasiten bestimmt. Es wird die Wirkstoffkonzentration angegeben, bei der mindestens 95 % der Parasiten abgetötet wurden (minimale effektive Dosis): […]

[4] = system: Strongyloides ratti; experiment: In vivo nematode test in experimentally infected rats; conditions: rats (Ratten), oral by gavage on three consecutive days from day 7 after infection, killed day 13, at least 95 % of parasites killed, read-out: minimale effektive Dosis
Text: as §1, with “Strongyloides ratti” for “Heterakis spumora”, “Ratten” for “Mäuse”, “7” for “32”, “drei” for “vier”, “13” for “39”, “angegeben,” for “angegeben”

Structure (SMILES)	minimal effective concentration [1] [µg/mL]	further results
CC(C)N1C(=O)C(C(=O)Nc2cccc(C(F)(F)F)c2)C(=O)N(C)P1(=O)Oc1cccc(Cl)c1 (stereo not shown) [Beispiel 22]	10	minimal effective dose [2]: 250 mg/kg; minimal effective dose [3]: 250 mg/kg
O=C(Nc1ccc(Cl)c(Cl)c1)C1C(=O)N(c2ccccc2)P(=O)(Oc2ccc(Cl)cc2)N(c2ccccc2)C1=O (stereo not shown) [Beispiel 13]	10	–
CN1C(=O)C(C(=O)Nc2cccc(C(F)(F)F)c2)C(=O)N(C)P1(=O)Oc1cccc(Cl)c1 (stereo not shown) [Beispiel 36]	10	–
CN1C(=O)C(C(=O)Nc2ccc(Cl)cc2)C(=O)N(C)P1(=O)Oc1ccc(Cl)cc1 (stereo not shown) [Beispiel 10]	1	–
CC(C)N1C(=O)C(C(=O)Nc2cccc(Cl)c2)C(=O)N(C(C)C)P1(=O)Oc1cccc(Cl)c1 (stereo not shown) [Beispiel 2]	100	–
CCN1C(=O)C(C(=O)Nc2cccc(C(F)(F)F)c2)C(=O)N(C)P1(=O)Oc1cccc(Cl)c1 (stereo not shown) [Beispiel 20]	10	minimal effective dose [4]: 250 mg/kg
Cc1cccc(OP2(=O)N(C)C(=O)C(C(=O)Nc3ccc(Cl)c(Cl)c3)C(=O)N2C(C)C)c1 (stereo not shown) [Beispiel 35]	10	–
Cc1cccc(OP2(=O)N(C)C(=O)C(C(=O)Nc3cccc(C(F)(F)F)c3)C(=O)N2C(C)C)c1 (stereo not shown) [Beispiel 27]	10	–
CC(C)N1C(=O)C(C(=O)Nc2cccc(C(F)(F)F)c2)C(=O)N(C(C)C)P1(=O)Oc1cccc(Cl)c1 (stereo not shown) [Beispiel 3]	100	–
Cc1cccc(OP2(=O)NC(=O)C(C(=O)Nc3cccc(C(F)(F)F)c3)C(=O)N2C)c1 (stereo not shown) [Beispiel 34]	100	–
O=C(Nc1ccc(Cl)c(Cl)c1)C1C(=O)N(c2ccccc2)P(=O)(Oc2ccccc2)N(c2ccccc2)C1=O (stereo not shown) [Beispiel 14]	100	–
CN1C(=O)C(C(=O)Nc2ccc(C(F)(F)F)cc2)C(=O)N(C)P1(=O)Oc1ccccc1 (stereo not shown) [Beispiel 8]	10	minimal effective dose [4]: 25 mg/kg
CN1C(=O)C(C(=O)Nc2cccc(Cl)c2)C(=O)N(C)P1(=O)Oc1ccc(Cl)cc1 (stereo not shown) [Beispiel 12]	100	–
CN1C(=O)C(C(=O)Nc2ccc(Cl)c(Cl)c2)C(=O)N(c2ccccc2)P1(=O)Oc1ccc(Cl)cc1 (stereo not shown) [Beispiel 37]	10	–
CN1C(=O)C(C(=O)Nc2ccc(C(F)(F)F)cc2)C(=O)N(C)P1(=O)Oc1ccc(Cl)cc1 (stereo not shown) [Beispiel 6]	1	–
CC(C)N1C(=O)C(C(=O)Nc2ccc(C(F)(F)F)cc2)C(=O)N(C)P1(=O)Oc1cccc(Cl)c1 (stereo not shown) [Beispiel 17]	10	–
Cc1cccc(OP2(=O)N(C)C(=O)C(C(=O)Nc3cccc(Cl)c3)C(=O)N2C(C)C)c1 (stereo not shown) [Beispiel 28]	100	–
CC(C)N1C(=O)C(C(=O)Nc2cccc(Cl)c2)C(=O)N(C)P1(=O)Oc1cccc(Cl)c1 (stereo not shown) [Beispiel 18]	10	–
CN1C(=O)C(C(=O)Nc2cccc(Cl)c2)C(=O)N(C)P1(=O)Oc1cccc(Cl)c1 (stereo not shown) [Beispiel 11]	1	minimal effective dose [4]: 10 mg/kg
CN1C(=O)C(C(=O)Nc2cccc(C(F)(F)F)c2)C(=O)N(C)P1(=O)Oc1ccc(Cl)cc1 (stereo not shown) [Beispiel 1]	10	–
